Data as given in publication PMC9964718, “Diterpenoids from Euphorbia gedrosiaca as Potential Anti-Proliferative Agents against Breast Cancer Cells” (Metabolites, 2023).

Tests used:
[1] = MTT viability assay, L929 normal fibroblast cell line; format: cell-based; details: L929 normal fibroblast cells (NCTC clone 929), L929 (normal) mouse fibroblast, 24 h incubation, mean ± SD (n = 3), read-out: Cytotoxic activity IC50
Procedure: (§1) MDA MB-231 and MCF-7 (ATCCR HTB-26 and ATCCR HTB-22) breast cancer cells, originated from Pasteur Institute (IPI, Tehran, I.R. Iran), were cultured in RPMI1640 with streptomycin, penicillin, and fetal bovine serum (FBS) (100 µg/mL, 100 units/mL, 10%) with criteria of 5% carbon dioxide, 37 °C, and 95% humidity for a few days. Mouse normal fibroblast cell line (NCTC clone 929 from the same institute) was cultured in DMEM+10% FBS+ 1% penicillin/streptomycin in the same conditions. After incubation, cells were seeded at 7 × 10^3 cells in each well of ninety-six well plates for 12 h. Then, the media were changed, and sample compounds in concentrations of 1, 10, and 100 µM were added. For L929 normal cell line, samples were added in the concentrations of 1, 10, 100, 250, and 500 µM. Placebo with the same amount of DMSO in each concentration used for compounds and Taxol in concentrations of 0.001, 0.01, 0.1, 1, and 10 µM were added as the negative and positive controls. After 24 h incubation time, the reduction agent (MTT, 5 mg/mL, 20 µL) was added to each well and incubated for 4 h to let the MTT be reduced into formazan derivative by the mitochondria of survived cells. The media was then changed with DMSO (200 µL) to solubilize the insoluble formazan crystals, and the absorbance was read by a Synergy ELISA reader (BioTek Instruments, Winooski, VT, USA) at 570 nm.

[2] = system: MCF-7 (ATCCR HTB-22) breast cancer cells; assay: MTT viability assay, MCF-7 breast cancer cells; format: cell-based; details: for IC50: Homo sapiens, MCF7, MCF-7, MTT, 24 h incubation, mean ± SD (n = 3), read-out: Cytotoxic activity IC50; for Potency in MTT assay: MCF-7, 100 μM concentration, P values less than 0.0001
Procedure: as §1

[3] = system: MDA-MB-231 (ATCCR HTB-26) breast cancer cells; assay: MTT viability assay, MDA-MB-231 breast cancer cells; format: cell-based; details: for IC50: Homo sapiens, MDA-MB-231, MTT, 24 h incubation, mean ± SD (n = 3), read-out: Cytotoxic activity IC50; for Cytotoxicity against MDA-MB-231 compared to MCF-7: comparison of MTT test results, MDA-MB-231 vs MCF-7
Procedure: as §1

[4] = system: human colon (Caco-2) tumor cells; parameters: method as in PMID 30200407; details: cited from earlier work
[5] = system: human lung (A549) tumor cells; parameters: method as in PMID 30200407; details: cited from earlier work
[6] = parameters: method as in PMID 30707022; details: compound isolated from roots of Euphorbia prolifera; cited from earlier work

Row | Compound | IC50 at 24 h [1] | IC50 [2] | IC50 [3] | Cytotoxicity against proliferation [4] | Cytotoxicity against MDA-MB-231 compared to MCF-7 [3] | Cytotoxicity against proliferation [5] | Potency in MTT assay [2] | Lipid-lowering activities and TG inhibitory effects [6]
1 | CCC(=O)OC1C2C(OC(C)=O)C34COC(C)(C(OC(=O)c5ccccc5)C2(OC(C)=O)CC1(C)OC(C)=O)C3C(C(C)(C)OC(C)=O)C=CC4OC(C)=O (centres unmarked) [Compound 5, 2,5,7,10,15-O-pentaacetyl-3-O-propanoyl-14-O-benzoyl-13,17-epoxy-8-myrsinene] | 596 ± 23.5 µM | 126 ± 4.2 µM | 33.7 ± 4.6 µM | – | – | – | – | –
2 | CCC(=O)O[C@@H]1[C@@H]2[C@@H](OC(=O)C(C)C)[C@@]3(COC(=O)c4cccnc4)[C@@H]([C@@H]4[C@H](C[C@H]3OC(C)=O)C4(C)C)[C@](C)(OC(C)=O)C(=O)[C@@]2(O)C[C@@H]1C [Compound 4, 3β-O-propanoyl-5α-O-isobutanoyl-7α,13β-O-diacetyl-17α-O-nicotinoyl-14-oxopremyrsinane] | 716 ± 26.9 µM | 74.4 ± 5.2 µM | 27.3 ± 3.2 µM | moderate cytotoxicity | almost three times higher cytotoxicity | moderate cytotoxicity | – | –
3 | CCC(=O)O[C@@H]1[C@@H]2[C@@H](OC(=O)C(C)CC)[C@@]3(COC(=O)c4cccnc4)[C@@H]([C@@H]4[C@H](C[C@H]3OC(C)=O)C4(C)C)[C@](C)(OC(C)=O)C(=O)[C@@]2(O)C[C@@H]1C (stereo partly drawn) [Compound 1, 3β-O-propanoyl-5α-O-methylbutanoyl-7α,13β-O-diacetyl-17α-O-nicotinoyl-14-oxopremyrsinane] | 528 ± 23.8 µM | 22.2 ± 2.4 µM | 10.8 ± 2.1 µM | moderate cytotoxicity | – | moderate cytotoxicity | reasonably potent | –
4 | CCC(=O)O[C@@H]1[C@@H]2[C@@H](OC(=O)C(C)C)[C@@]3(COC(C)=O)[C@@H]([C@@H]4[C@H](C[C@H]3OC(C)=O)C4(C)C)[C@](C)(OC(C)=O)C(=O)[C@@]2(O)C[C@@H]1C [Compound 3, 3β-O-propanoyl-5α-O-isobutanoyl-7α,13β, 17α -O-triacetyl-14-oxopremyrsinane] | 433 ± 22.1 µM | 62.6 ± 4.9 µM | 24.5 ± 3.8 µM | moderate cytotoxicity | almost three times higher cytotoxicity | moderate cytotoxicity | – | –
5 | CCC(=O)O[C@@H]1[C@@H]2[C@@H](OC(=O)c3ccccc3)[C@@]3(COC(C)=O)[C@@H]([C@@H]4[C@H](C[C@H]3OC(C)=O)C4(C)C)[C@](C)(OC(C)=O)C(=O)[C@@]2(O)C[C@@H]1C [Compound 2, 3β-O-propanoyl-5α-O-benzoyl-7α,13β, 17α -O-triacetyl-14-oxopremyrsinane] | 553 ± 26.7 µM | 27.8 ± 2.5 µM | 22.2 ± 4 µM | – | – | – | reasonably potent | acceptable
